Series [1] concerns guinea pig bladder muscle strips. To be noted: guinea pig bladder muscle strips in vitro; cited from earlier work.
The next series deals with rabbit bladder. The settings on record: cited from earlier work.
Series [2] concerns the target cholinergic receptors. The settings on record: read-out: IC50 for displacement of tritiated-quinuclidinol benzoate (QNB) binding, cited from earlier work.
Series [3] concerns rat urinary bladder strips. The settings on record: cited from earlier work.
Another series has as its system nocturnal enuresis. The settings on record: cited from earlier work; for effectiveness in treating nocturnal enuresis: human, in vivo.
The subject of series [4] is dog bladder strips. The settings on record: cited from earlier work.
The subject of series [5] is rabbit urethra and bladder fragments. Briefly: NE release in rabbit urethra and bladder fragments in vitro.
The subject of the next series is dog bladder and urethra. The settings on record: cited from earlier work.
Another series has as its system micturition reflex. To be noted: cited from earlier work.
A short description of series [6]: clinical evaluation as potential treatments for depression, side effects.
The test system of a further series is guinea pig bladder. The settings on record: guinea pig strips in vitro and cystometrogram in vivo; cited from earlier work.
In a further series the test system is cat bladder. To be noted: in vivo; cited from earlier work.
A further series has as its system rabbit detrusor strips. To be noted: rabbit detrusor strips in vitro; cited from earlier work.
Series [7] has as its system rabbit bladder strips. To be noted: in the presence of imipramine; cited from earlier work.
Series [8] relates to dog urethra and bladder fragments. Briefly: NE release in dog urethra and bladder fragments in vitro.
The subject of the next series is frog sciatic nerves. The settings on record: frog sciatic nerves in vitro; cited from earlier work.
The subject of series [9] is rabbit bladder strips. To be noted: cited from earlier work.
For the next series, the system named is stress incontinence. The settings on record: women with stress incontinence; cited from earlier work.
The next series relates to human bladder strips. To be noted: cited from earlier work.
For series [10] the following is noted: children under 5 years of age; cited from earlier work.
Series [11] concerns dog bladder muscle strips. The settings on record: cited from earlier work.
Series [12] relates to bladder. The settings on record: female dogs; cited from earlier work.
For series [13], the system named is dog bladder strips. The settings on record: cited from earlier work. The source holds these as a separate data set.
A further series concerns urethra. The settings on record: female dogs; cited from earlier work.
Series [14] concerns muscarinic presynaptic receptors. The settings on record: rat bladder tissue in vitro; cited from earlier work.
For series [15], the target named is cholinergic receptors. Briefly: 3H-QNB ligand displacement assay (in vitro anti-cholinergic assay). Format: binding. The settings on record: 3H-QNB displacement; read-out: anticholinergic IC50.
The conditions of series [16]: human, in vivo.
Another series concerns rat bladder tissue. Briefly: relaxation of rat bladder tissue to NE.
For a further series, the system named is rat urethral tissue. Briefly: contractile response of rat urethral tissue to NE.
Series [17] deals with bladder. Briefly: bladder function in the cat. Format: in vivo.

Where two headings read alike, the source gives them in different places.

As for `CN1[C@@H]2CC[C@H]1C[C@@H](OC(=O)C(CO)c1ccccc1)C2` (some centres unmarked) [atropine], the potassium-induced contraction result in [1] is “not effect at high concentration”. In the series with rabbit bladder (rabbit bladder organ bath), the “suppression/inhibition of field stimulated contraction” value (shortened to “suppression/inhibition”) is reported as 30% and the “suppression/relaxation of bethanechol-induced contraction” value (“suppression/relaxation” below) is reported as 70%. In addition, at cholinergic receptors [2], the concentration for half-maximal inhibition (IC50) is 52 µM.
As for `CN(C)CCC=C1c2ccccc2CCc2ccccc21` [amitriptyline], the “contractile response to electrical stimulation” value in series [3] was “suppressed the contractile response”. The “effectiveness in treating nocturnal enuresis” value in the series with nocturnal enuresis is on record as “effective”.
Take `CC(C)[N+](C)(CCOC(=O)C1c2ccccc2Oc2ccccc21)C(C)C` [propantheline]: at cholinergic receptors [2] (bladder homogenates), the IC50 was 29.5 µM.
In the case of `CN(C)CCCN1c2ccccc2CCc2ccccc21` [imipramine], the “contractile responses to barium chloride” value in the series on dog bladder strips [4] is “suppressed contractile responses to barium chloride”. For the same compound, the musculotropic relaxant effect result in the series on dog bladder strips [4] (compared with flavoxate) was “more potent than that of flavoxate”. Further, the “cholinergic contractile responses induced by bethanechol” value in the series with dog bladder strips [4] (dog bladder strips) is on record as “suppressed cholinergic contractile responses”. Besides, the NE release result in [5] was “increase NE release”. In addition, the “bladder and urethral pressure responses to pelvic nerve stimulation and other stimuli” value with dog bladder and urethra was “reduce dog bladder and urethral pressure responses”. Also, in the series with micturition reflex (acute administration), the “supraspinal reflex or myogenic activity of bladder” value is “no effect” and the “threshold for activating the bladder-spinal-bladder (vesicovesical) micturition reflex” value is recorded as “increased the threshold”. Moreover, the “threshold for supraspinal reflex” value with micturition reflex (repeated administration) was “increased threshold for supraspinal reflex”. The noted side effect entry in [6] is reported as “urine retention”. The activity on bladder result in the series on guinea pig bladder was “anticholinergic, antispasmodic, and local anesthetic activity”. Besides, in the series with cat bladder, the “effects of hypogastric nerve stimulation on bladder relaxation” value is “potentiated the effects of hypogastric nerve stimulation”. Further, the “carbamylcholine and barium chloride-induced contractions” value in the series with rabbit detrusor strips is listed as “antagonize”. In addition, in the series on rabbit bladder strips [7], the “effectiveness of calcium to augment bethanechol-induced contraction” value is recorded as “decreased effectiveness of calcium”. Further, the NE release result in series [8] is reported as “increase NE release”. Also, the impulse conduction entry in the series on frog sciatic nerves is reported as “block the impulse conduction”. The “contractile responses to acetylcholine (ACH)” value (“contractile responses … (ACH)” below) with rabbit bladder strips [9] was “block in vitro contractile responses”. Besides, the potassium-induced contraction entry in [1] is given as “suppression of potassium-induced contraction”. Moreover, the restoring continence entry in the series on stress incontinence is reported as “effective as a single therapy”. In addition, the “contractile responses … (ACH)” value in the series on human bladder strips is given as “block in vitro contractile responses”. Also, the toxicity in children result in series [10] was “particularly toxic and potentially lethal in low dosage”. For the same compound, in the series on nocturnal enuresis (following treatment), the “further patients with improvements” value is recorded as 15-20% and the “patients with enuresis cured” value is “over 50%”. In the series on rabbit bladder (rabbit bladder organ bath), the “suppression/inhibition” value was 50% and the “suppression/relaxation” value is reported as 50%. For the same compound, the “relaxation effects of norepinephrine” value in series [11] (with norepinephrine) is on record as “enhanced the in vitro relaxation effects of norepinephrine”. Further, the “effect on bladder muscle strips alone” value in series [11] (without norepinephrine) was “no effects alone”. Also, the “bladder pressure responses to pelvic nerve stimulation” value in the series on bladder [12] is on record as “reduced bladder pressure responses”. Moreover, the “contractile responses … (ACH)” value in the series on dog bladder strips [13] is on record as “block in vitro contractile responses”. On cholinergic receptors [2] (bladder homogenates), the half-maximal inhibitory concentration (IC50) was 13 µM. Also, the urethral pressure result with urethra is recorded as “increase urethral pressure”. The “effect on muscarinic presynaptic receptors” value in series [14] is on record as “strong antagonistic effect on muscarinic presynaptic receptors”.
As for `CNCC[C@@H](Oc1ccccc1C)c1ccccc1` [tomoxetine, (-)-N-methyl-3-(2-methylphenoxy)-3-phenylpropylamine], the IC50 on cholinergic receptors [15] came out at 21 µM. In addition, in series [5], the NE release result is on record as “increase NE release”. Also, in series [16], the noted side effect result was “urine retention”; the “side effects such as dry mouth, drowsiness, and dizziness” value was “considerably fewer side effects”. In series [8], the NE release entry is recorded as “increase NE release”. Also, the “relaxation of bladder tissue to NE” value in the series with rat bladder tissue is reported as “augment the relaxation”. Also, the “contractile response of urethral tissue to NE” value in the series on rat urethral tissue is recorded as “significantly increase the contractile response”. Also, in the series with bladder [17], the “amplitude and frequency of contractions” value is “decreasing the amplitude and frequency of contractions”; the bladder capacity result is “increasing bladder capacity”.
`COc1ccc(CCN(C)CCCC(C#N)(c2ccc(OC)c(OC)c2)C(C)C)cc1OC` (centres unmarked) [verapamil]: in the series on rabbit bladder, the “suppression/inhibition” value is given as 81%. The “suppression/relaxation” value with rabbit bladder (rabbit, bladder) is 85%.
Take `CCN(CC)CC(=O)Nc1c(C)cccc1C` [lidocaine]: in series [1], the potassium-induced contraction result is given as “not effect at high concentration”.
With `CNCCC=C1c2ccccc2CCc2ccccc21` [nortriptyline], the “effectiveness in treating nocturnal enuresis” value in the series with nocturnal enuresis is “effective”.
Regarding `CNCCCN1c2ccccc2CCc2ccccc21` [desipramine], in [3], the “contractile response to electrical stimulation” value is listed as “suppressed the contractile response”. In addition, in the series on nocturnal enuresis, the “effectiveness in treating nocturnal enuresis” value is given as “effective”.

The values are drawn from patent US5441985A, “Treatment of lower urinary tract disorders with selective norepinephrine uptake inhibitors” (priority 1993, dated 1995).
